Counter-ions that a name gives are not always drawn. Bridge positions count the residues as written; N and C are the ends. Square brackets hold non-standard residues; d marks the D form. Peptide text beside a SMILES is read from it. * marks the point of attachment. ξ: configuration not given here. pTerphenylCO(4''-OnC5H11) = CCCCCOc1ccc(-c2ccc(-c3ccc(C(=O)*)cc3)cc2)cc1; Pro(3S-OH,4S-Me) = C[C@H]1CN[C@H](C(=O)O)[C@H]1O; hTyr(3R-OH) = N[C@H](C(=O)O)[C@H](O)Cc1ccc(O)cc1; Hyp = O=C(O)[C@@H]1C[C@@H](O)CN1; Thr(3ξ) = CC(O)[C@H](N)C(=O)O; dOrn = NCCC[C@@H](N)C(=O)O; Orn = NCCC[C@H](N)C(=O)O; Dab = NCC[C@H](N)C(=O)O; ξDap = NCC(N)C(=O)O
How the values were obtained:
Details in all cases: in vitro
C. parapsilosis = test system: C. parapsilosis
Histoplasma capsulatum = test system: Histoplasma capsulatum
C. albicans = test system: C. albicans
A. fumigatus = test system: A. fumigatus

SMILES	Minimal Inhibitory Concentration MIC C. parapsilosis (C. parapsilosis) [mg/L]	Minimal Inhibitory Concentration MIC Histoplasma capsulatum (Histoplasma capsulatum) [mg/L]	Minimal Inhibitory Concentration MIC C. albicans (C. albicans) [mg/L]	Minimal Inhibitory Concentration MIC A. fumigatus (A. fumigatus) [mg/L]
CCCCCOc1ccc(-c2ccc(-c3ccc(C(=O)N[C@H]4CCN(C)NC(=O)[C@@H]5[C@@H](O)[C@@H](C)CN5C(=O)[C@H](C(C)O)NC(=O)[C@H]([C@H](O)Cc5ccc(O)cc5)NC(=O)[C@@H]5C[C@@H](O)CN5C(=O)[C@H](C(C)O)NC4=O)cc3)cc2)cc1 (single isomer, unassigned) [E2-11(a) HCl salt]	0.156	0.02	0.001	0.078
CCCCCOc1ccc(-c2ccc(-c3ccc(C(=O)N[C@H]4CCN(C)NC(=O)[C@@H]5[C@@H](O)[C@@H](C)CN5C(=O)[C@H](C(C)O)NC(=O)[C@H]([C@H](O)Cc5ccc(O)cc5)NC(=O)[C@@H]5C[C@@H](O)CN5C(=O)[C@H](C(C)O)NC4=O)cc3)cc2)cc1 (single isomer, unassigned) [E2-11(a) TFA salt]	0.156	0.78	0.005	0.039
CCCCCOc1ccc(-c2ccc(-c3ccc(C(=O)N[C@H]4CCN(C(=O)C(N)CN)NC(=O)[C@@H]5[C@@H](O)[C@@H](C)CN5C(=O)[C@H](C(C)O)NC(=O)[C@H]([C@H](O)Cc5ccc(O)cc5)NC(=O)[C@@H]5C[C@@H](O)CN5C(=O)[C@H](C(C)O)NC4=O)cc3)cc2)cc1 (single isomer, unassigned) [E2-13 (isomer 1)]	2.5	1.25	0.078	0.625
CCCCCOc1ccc(-c2ccc(-c3ccc(C(=O)N[C@H]4CCN(C(=O)C(N)CN)NC(=O)[C@@H]5[C@@H](O)[C@@H](C)CN5C(=O)[C@H](C(C)O)NC(=O)[C@H]([C@H](O)Cc5ccc(O)cc5)NC(=O)[C@@H]5C[C@@H](O)CN5C(=O)[C@H](C(C)O)NC4=O)cc3)cc2)cc1 (single isomer, unassigned) [E2-13 (isomer 2)]	20	10	0.156	1.25
CCCCCOc1ccc(-c2ccc(-c3ccc(C(=O)N[C@H]4CCCNC(=O)[C@@H]5[C@@H](O)[C@@H](C)CN5C(=O)[C@H](C(C)O)NC(=O)[C@H]([C@H](O)Cc5ccc(O)cc5)NC(=O)[C@@H]5C[C@@H](O)CN5C(=O)[C@H](C(C)O)NC4=O)cc3)cc2)cc1 (stereo partly drawn) [Compound E1-3] ({pTerphenylCO(4''-OnC5H11)}-[Orn][Thr(3ξ)][Hyp][hTyr(3R-OH)][Thr(3ξ)][Pro(3S-OH,4S-Me)]; lactam 1-C)	0.156	0.156	0.005	0.078
CCCCCOc1ccc(-c2ccc(-c3ccc(C(=O)N[C@@H]4CCCNC(=O)[C@@H]5[C@@H](O)[C@@H](C)CN5C(=O)[C@H](C(C)O)NC(=O)[C@H]([C@H](O)Cc5ccc(O)cc5)NC(=O)[C@@H]5C[C@@H](O)CN5C(=O)[C@H](C(C)O)NC4=O)cc3)cc2)cc1 (stereo partly drawn) [Compound E1-4] ({pTerphenylCO(4''-OnC5H11)}-[dOrn][Thr(3ξ)][Hyp][hTyr(3R-OH)][Thr(3ξ)][Pro(3S-OH,4S-Me)]; lactam 1-C)	>20	5.0	1.25	20.0
CCCCCOc1ccc(-c2ccc(-c3ccc(C(=O)N[C@H]4CCCCNC(=O)[C@@H]5[C@@H](O)[C@@H](C)CN5C(=O)[C@H](C(C)O)NC(=O)[C@H]([C@H](O)Cc5ccc(O)cc5)NC(=O)[C@@H]5C[C@@H](O)CN5C(=O)[C@H](C(C)O)NC4=O)cc3)cc2)cc1 (stereo partly drawn) [Compound E1-5] ({pTerphenylCO(4''-OnC5H11)}-K[Thr(3ξ)][Hyp][hTyr(3R-OH)][Thr(3ξ)][Pro(3S-OH,4S-Me)]; lactam 1-C)	>20	0.156	0.02	2.5
CCCCCOc1ccc(-c2ccc(-c3ccc(C(=O)N[C@H]4CCNC(=O)[C@@H]5[C@@H](O)[C@@H](C)CN5C(=O)[C@H](C(C)O)NC(=O)[C@H]([C@H](O)Cc5ccc(O)cc5)NC(=O)[C@@H]5C[C@@H](O)CN5C(=O)[C@H](C(C)O)NC4=O)cc3)cc2)cc1 (stereo partly drawn) [Compound E1-6] ({pTerphenylCO(4''-OnC5H11)}-[Dab][Thr(3ξ)][Hyp][hTyr(3R-OH)][Thr(3ξ)][Pro(3S-OH,4S-Me)]; lactam 1-C)	>20	0.078	0.039	20
CCCCCOc1ccc(-c2ccc(-c3ccc(C(=O)NC4CNC(=O)[C@@H]5[C@@H](O)[C@@H](C)CN5C(=O)[C@H](C(C)O)NC(=O)[C@H]([C@H](O)Cc5ccc(O)cc5)NC(=O)[C@@H]5C[C@@H](O)CN5C(=O)[C@H](C(C)O)NC4=O)cc3)cc2)cc1 (stereo partly drawn) [Compound E1-7] ({pTerphenylCO(4''-OnC5H11)}-[ξDap][Thr(3ξ)][Hyp][hTyr(3R-OH)][Thr(3ξ)][Pro(3S-OH,4S-Me)]; lactam 1-C)	>20	0.625	0.312	0.625
CCCCCOc1ccc(-c2ccc(-c3ccc(C(=O)N[C@H]4CCN(C(=O)CN)NC(=O)[C@@H]5[C@@H](O)[C@@H](C)CN5C(=O)[C@H](C(C)O)NC(=O)[C@H]([C@H](O)Cc5ccc(O)cc5)NC(=O)[C@@H]5C[C@@H](O)CN5C(=O)[C@H](C(C)O)NC4=O)cc3)cc2)cc1 (stereo partly drawn) [Compound E2-12]	0.312	0.039	0.01	0.156
CCCCCOc1ccc(-c2ccc(-c3ccc(C(=O)NC4CS(=O)(=O)CCNC(=O)[C@@H]5[C@H](O)[C@@H](C)CN5C(=O)[C@H]([C@@H](C)O)NC(=O)[C@H]([C@H](O)Cc5ccc(O)cc5)NC(=O)[C@@H]5C[C@@H](O)CN5C(=O)[C@H]([C@@H](C)O)NC4=O)cc3)cc2)cc1 (stereo partly drawn) [Compound E3-6]	>20	10	10	20
CCCCCOc1ccc(-c2ccc(-c3ccc(C(=O)N[C@@H]4CS(=O)(=O)CCNC(=O)[C@@H]5[C@H](O)[C@@H](C)CN5C(=O)[C@H]([C@@H](C)O)NC(=O)[C@H]([C@H](O)Cc5ccc(O)cc5)NC(=O)[C@@H]5C[C@@H](O)CN5C(=O)[C@H]([C@@H](C)O)NC4=O)cc3)cc2)cc1 [Compound E3-7]	>20	>20	>20	>20
CCCCCOc1ccc(-c2ccc(-c3ccc(C(=O)N[C@H]4CCCNC(=O)[C@@H]5[C@@H](O)[C@@H](C)CN5C(=O)[C@H](C(C)O)NC(=O)[C@H]([C@H](O)Cc5ccc(O)cc5)NC(=O)[C@@H]5C[C@@H](O)CN5C(=O)[C@H](C(C)C)NC4=O)cc3)cc2)cc1 (stereo partly drawn) [Compound E4-6] ({pTerphenylCO(4''-OnC5H11)}-[Orn]V[Hyp][hTyr(3R-OH)][Thr(3ξ)][Pro(3S-OH,4S-Me)]; lactam 1-C)	>20	>20	1.25	>20
CCCCCOc1ccc(-c2ccc(-c3ccc(C(=O)N[C@H]4CCCNC(=O)[C@@H]5[C@@H](O)[C@@H](C)CN5C(=O)[C@H](C(C)O)NC(=O)[C@H]([C@H](O)Cc5ccc(O)cc5)NC(=O)[C@@H]5C[C@@H](O)CN5C(=O)[C@H](Cc5ccc(O)cc5)NC4=O)cc3)cc2)cc1 (stereo partly drawn) [Compound E5-7] ({pTerphenylCO(4''-OnC5H11)}-[Orn]Y[Hyp][hTyr(3R-OH)][Thr(3ξ)][Pro(3S-OH,4S-Me)]; lactam 1-C)	>20	>20	>20	>20
CCCCCOc1ccc(-c2ccc(-c3ccc(C(=O)N[C@H]4CNC(=N)NC(=O)[C@@H]5[C@@H](O)[C@@H](C)CN5C(=O)[C@H](C(C)O)NC(=O)[C@H]([C@H](O)Cc5ccc(O)cc5)NC(=O)[C@@H]5C[C@@H](O)CN5C(=O)[C@H](C(C)O)NC4=O)cc3)cc2)cc1 (stereo partly drawn) [Compound E6-6]	>20	>20	0.078	>20
